Results as given in US6878731B2, “Imidazole alkaloids from Lepidium meyenii and methods of usage” (Pure World Botanicals, Inc., priority 2002, dated 2005).

Legend:
[1] = system: UMUC3 (human bladder carcinoma); conditions: UMUC3 cell line
[2] = system: PACA2 (human pancreatic adenocarcinoma); conditions: PACA2 cell line
[3] = system: FDIGROV (human ovarian carcinoma); conditions: FDIGROV cell line
[4] = system: PC-3 (human prostate adenocarcinoma); conditions: PC-3 cell line
[5] = system: HT-29 (human colon adenocarcinoma); conditions: HT-29 cell line
[6] = system: A-549 (human lung carcinoma); conditions: A-549 cell line
[7] = system: MDA231 (human breast carcinoma); conditions: MDA231 cell line
[8] = system: A4982LM (human kidney carcinoma); conditions: A4982LM cell line

## Cc1c(C)[n+](Cc2ccccc2)cn1Cc1ccccc1.[Cl-] [Compound 1, 1,3-bis(phenylmethyl)-4,5-dimethyl-1H-imidazlium chloride]
[1]
  Cytotoxic activity ED50, UMUC3: >10 µg/mL
[2]
  Cytotoxic activity ED50, PACA2: >10 µg/mL
[3]
  Cytotoxic activity ED50, FDIGROV: 7.39 µg/mL
  ED50, FDIGROV: 7390 µg/mL
[4]
  Cytotoxic activity ED50, PC-3: >10 µg/mL
  Cytotoxic activity in words, PC-3: inactive
[5]
  Cytotoxic activity ED50, HT-29: >10 µg/mL
  Cytotoxic activity in words, HT-29: inactive
[6]
  Cytotoxic activity ED50, A-549: >10 µg/mL
  Cytotoxic activity in words, A-549: inactive
[7]
  Cytotoxic activity ED50, MDA231: >10 µg/mL
[8]
  Cytotoxic activity ED50, A4982LM: >10 µg/mL
  Cytotoxic activity in words, A4982LM: inactive

## Cc1c(C)[n+](Cc2ccccc2)c(C)n1Cc1ccccc1.[Cl-] [Compound 2, 1,3-bis(phenylmethyl)-2,4,5-trimethyl-1H-imidazlium chloride]
[1]
  Cytotoxic activity ED50, UMUC3: 6.47 µg/mL
[2]
  Cytotoxic activity ED50, PACA2: 1.38 µg/mL
[3]
  Cytotoxic activity ED50, FDIGROV: 5.26 µg/mL
  ED50, FDIGROV: 5260 µg/mL
[4]
  Cytotoxic activity ED50, PC-3: >10 µg/mL
  Cytotoxic activity in words, PC-3: inactive
[5]
  Cytotoxic activity ED50, HT-29: >10 µg/mL
  Cytotoxic activity in words, HT-29: inactive
[6]
  Cytotoxic activity ED50, A-549: >10 µg/mL
  Cytotoxic activity in words, A-549: inactive
[7]
  Cytotoxic activity ED50, MDA231: 1.66 µg/mL
[8]
  Cytotoxic activity ED50, A4982LM: >10 µg/mL
  Cytotoxic activity in words, A4982LM: inactive
